“And” between values parts separate entries of the source, which are not always exact repeats. Identical values can stand only once. Like-named read-outs stand apart in the source and are kept apart here.
Assays:
[1] = biological target: T1, human D2R long isoform (Homo sapiens, UniProt P14416); set-up: host or cells: CHO-K1; method as in PMID 30883109; conditions: antagonist mode; previously reported; cited from earlier work
[2] = biological target: T2, human D3R (Homo sapiens, UniProt P35462); set-up: host or cells: CHO-K1; method as in PMID 30883109; conditions: previously reported, cited from earlier work
T2 sequence (P35462 whole entry): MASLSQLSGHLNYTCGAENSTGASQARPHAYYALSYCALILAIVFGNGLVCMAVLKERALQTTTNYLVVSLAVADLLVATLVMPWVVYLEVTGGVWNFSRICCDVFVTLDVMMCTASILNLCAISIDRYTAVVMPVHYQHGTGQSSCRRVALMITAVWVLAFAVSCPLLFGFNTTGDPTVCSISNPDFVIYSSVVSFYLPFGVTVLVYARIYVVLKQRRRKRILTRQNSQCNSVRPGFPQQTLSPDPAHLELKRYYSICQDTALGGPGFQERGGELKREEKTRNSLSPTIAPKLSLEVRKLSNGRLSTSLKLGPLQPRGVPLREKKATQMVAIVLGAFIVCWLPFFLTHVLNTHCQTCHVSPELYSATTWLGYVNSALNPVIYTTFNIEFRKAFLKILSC

[3] = biological target: T3, human D4R (Homo sapiens, UniProt P21917); set-up: host or cells: CHO-K1; method as in PMID 30883109; conditions: previously reported, cited from earlier work; for D4R Emax (%): agonist mode; for D4R Ant. (%): antagonist mode
T3 sequence (P21917 1-419): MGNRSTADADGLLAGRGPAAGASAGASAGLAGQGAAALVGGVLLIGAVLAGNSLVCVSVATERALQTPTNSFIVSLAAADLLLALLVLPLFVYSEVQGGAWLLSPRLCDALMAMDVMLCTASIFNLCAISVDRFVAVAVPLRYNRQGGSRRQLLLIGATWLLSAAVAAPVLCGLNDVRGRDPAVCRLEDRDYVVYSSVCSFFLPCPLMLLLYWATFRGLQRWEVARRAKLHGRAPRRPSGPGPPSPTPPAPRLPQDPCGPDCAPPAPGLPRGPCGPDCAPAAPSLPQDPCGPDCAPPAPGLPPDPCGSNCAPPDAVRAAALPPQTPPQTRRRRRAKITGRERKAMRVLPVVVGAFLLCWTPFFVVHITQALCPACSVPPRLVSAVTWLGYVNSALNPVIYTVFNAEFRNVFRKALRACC

[4] = Phase I metabolic stability in rat liver microsomes (with NADPH); format: in vitro ADME; conditions: pH 7.4, presence of NADPH, mean ± SD, n = 3
Experimental: (§1) We evaluated the Phase I metabolic stability of compounds 2−7 and 14−19 using rat and human liver microsomes, as previously described.[45]
(§2) Phase I metabolic stability assays were conducted using rat and human liver microsomes as previously described[45],[70] with minor modifications. In brief, the reactions were carried out with 100 mM potassium phosphate buffer, pH 7.4, in the presence of NADPH regenerating system (1.3 mM NADPH, 3.3 mM glucose 6-phosphate, 3.3 mM MgCl2, 0.4 U/mL glucose-6-phosphate dehydrogenase, 50 μM sodium citrate). Negative controls without cofactors were assessed to determine the non-CYP-mediated metabolism. Compound disappearance was monitored over time using a liquid chromatography and tandem mass spectrometry (LC/MS) method. All reactions were performed in triplicate.
(§3) Chromatographic analysis was performed on a Dionex ultra high-performance LC system coupled with Q Exactive Focus orbitrap mass spectrometer (Thermo Fisher Scientific Inc., Waltham MA). Separation was achieved using Agilent Eclipse Plus column (100 × 2.1 mm^2 i.d.; maintained at 35 °C) packed with a 1.8 μm C18 stationary phase. […] The total run time for each analyte was 6.5 min. Pumps were operated at a flow rate of 0.3 mL/min. The mass spectrometer controlled by Xcalibur software 4.0.27.13 (Thermo Scientific) was operated with a HESI ion source in positive ionization mode. Compounds were identified in the full-scan mode (from m/z 50 to 750) by comparing t = 0 samples with t = 30 min and t = 60 min samples.

[5] = Phase I metabolic stability in human liver microsomes (with NADPH); format: in vitro ADME; conditions: pH 7.4, presence of NADPH, mean ± SD, n = 3
Experimental: as §1, §2, §3

[6] = biological target: T3, human D4R; conditions: for D4R Ant. (%): cAMP, antagonist mode, 10 μM forskolin and 10 nM dopamine, normalized to spiperone; for Emax: read-out: D4R Emax (%)
[7] = biological target: T1, human D2R long isoform; assay: DiscoverX PathHunter β-arrestin recruitment assay, D2R
[8] = biological target: T2, human D3R; assay: DiscoverX PathHunter β-arrestin recruitment assay, D3R
[9] = biological target: T3, human D4R; assay: DiscoverX PathHunter β-arrestin recruitment assay, D4R
[10] = antagonist mode, EC80 dopamine (1 μM), normalized to spiperone

T1 sequence (P14416 whole entry, canonical isoform): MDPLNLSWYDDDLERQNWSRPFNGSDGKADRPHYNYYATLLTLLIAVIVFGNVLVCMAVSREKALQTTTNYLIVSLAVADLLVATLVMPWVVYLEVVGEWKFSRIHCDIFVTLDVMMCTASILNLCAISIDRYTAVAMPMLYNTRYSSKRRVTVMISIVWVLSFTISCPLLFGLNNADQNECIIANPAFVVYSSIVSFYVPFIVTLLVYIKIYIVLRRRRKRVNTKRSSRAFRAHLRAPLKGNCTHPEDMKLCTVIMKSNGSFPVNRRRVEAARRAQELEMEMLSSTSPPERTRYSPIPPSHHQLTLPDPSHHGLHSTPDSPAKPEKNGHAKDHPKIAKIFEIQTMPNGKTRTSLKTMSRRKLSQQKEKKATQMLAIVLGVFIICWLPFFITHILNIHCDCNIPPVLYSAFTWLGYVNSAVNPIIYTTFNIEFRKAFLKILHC

Structure (SMILES)	D2R Ant (%) [1] [%]	D4R Emax (%) [3] [%]	D4R Ant. (%) [3]	half-life [4] [min]	half-life [5] [min]	EC50 [6] [nM]	IC50 [6] [nM]	D4R Ant. (%) [6] [%]	Emax [6] [%]	also measured
Cc1cccc(NC(=O)CN2CCC(c3ccccn3)CC2)c1 [Compound 1, reference compound]	94.8 ± 2.8	22.5 ± 4.0	81.7 ± 2.7%	–	–	–	–	–	–	EC50 ([2]; agonist mode): > 100000 nM; IC50 ([2]; antagonist mode): > 100000 nM
Cc1cccc(NC(=O)CN2CCC(c3ccccc3)CC2)c1 [Compound 5]	99.7 ± 0.3	14 ± 0.3	93% and 93.3 ± 1.8%	1.99 ± 2.82	10.8 ± 0.57	7.54 ± 2.21	42.4 ± 10.6	47 ± 1	42 ± 8	–
Cc1cccc(-n2cc(CN3CCN(c4ncccn4)CC3)nn2)c1 [Compound 16, 2-(4-((1-(m-Tolyl)-1H-1,2,3-triazol-4-yl)methyl)-piperazin-1-yl)pyrimidine]	–	–	–	68.1 ± 9.51	40.1 ± 1.91	7.68 ± 1.88	67.9 ± 11.3	45 ± 3	39 ± 7	EC50 [7]: 6870 ± 2500 nM; IC50 [7]: 19000 nM; D2R Ant (%) [7, 10]: 73.2 ± 4.6%; Emax ([7]; read-out: D2R Emax (%)): 25.3 ± 4.9%; EC50 [8]: > 100000 nM; IC50 [8]: > 10000 nM; D3R Ant. (%) [8, 10]: 105 ± 4%; Emax ([8]; read-out: D3R Emax (%)): 75 ± 14%; EC50 [9]: > 100000 nM; IC50 [9]: 140 ± 35 nM; D4R average activity at the highest tested dose ([9]; agonist mode, at 100 μM (Emax ND)): ND (14% at 100 μM); D4R Emax (%) ([9]; agonist mode, in comparison to dopamine): did not show partial agonist activity; D4R Ant. (%) [9, 10]: 85.2 ± 2.4%
